Laboratory results: US20240101568A1, “NOVEL BENZAZEPINE SPIRO DERIVATIVE” (SHANGHAI JEMINCARE PHARMACEUTICAL CO., LTD, priority 2020, published 2024)
Where two headings read alike, the source gives them in different places. Each block holds one compound with its values, some of them ahead of it.

Key:
[1] = molecular target: T1, human vasopressin receptor V2R (Homo sapiens, UniProt P30518); assay: IC50 assay for inhibition of vasopressin-induced V2R activation (cAMP increase, HTRF) in HeLa-V2R cells; assay type: cell-based
T1 construct: host or cells: HeLa (lentivirus infection, puromycin selection)
Excerpt: Experimental Example 1: IC50 Assay for Inhibition of Vasopressin-Induced Vasopressin Receptor V2R Activation by Compounds
Hela cell line stably expressing the human vasopressin receptor V2R (HeLa-V2R): it was constructed by Shanghai Jikai Gene Chemical Technology Co. Ltd. using lentivirus infection method and stably expressed human V2R as verified by qPCR.
DMEM cell culture medium: brand: Gibco, code: 11995065; fetal bovine serum: brand: Jitai, article No: FND500; 0.25% Trypsin: brand: Cibco, code: 25200072; Puromycin Dihydrochloride: brand: Gibco, code: A1113803; cAMP-GS HIRANGE KIT: brand: Cisbio, code: 62AM6PEC; IBMX: brand: Sigma, code: i5879; vasopressin AVP: Ji'er Biochemical (Shanghai) Co. Ltd.
Hela-V2R cells were cultured in a DMEM medium supplemented with 10% fetal bovine serum at 37° C. with 5% CO2 and continuously selected for V2R-expressing cells by adding 2 μg/mL puromycin. On the day of the experiment, cells were trypsinized, washed twice with stimulation buffer from the cAMP-GS HIRANGE kit, resuspended, and counted to 1.6×10^6 cells/ml, and IBMX was added to a final concentration of 0.5 mM. 5 μL of cell suspension/well was transferred to a 384-well plate and 2.5 μL of test compound or DMSO (minimum Min, maximum Max control) was added at various concentrations (10 μM in a 3-fold dilution, 10 concentration gradients) to the corresponding wells. After 30 minutes of incubation at room temperature, 2.5 μL vasopressin AVP solution was added to a final concentration of 2.25 nM to the test compound wells and 2.5 μL stimulation buffer to the minimum wells and incubated for 60 minutes at 25 C. Simultaneously cAMP standard sample (3-fold dilution from 5.6 μM, 10 concentration points) was prepared, and 10 μL of cAMP standard sample was transferred to corresponding well of a 384-well plate. The cAMP-d2 fluorescence and anti-cAMP antibody probes provided in the kit were diluted 20-fold with lysis buffer in the cAMP-GS HIRANGE kit, 5 μL of each was taken and added into each well of the 384-well plate in turn, mixed well with simple centrifugation performed, and incubated at 25° C. for 2 hours and then detect. Sample detection: fluorescence intensity was measured at 615 nm and 665 nm using the HTRF method in the Envision plate reader. Two duplicate wells were made for each sample to be tested, and 32 duplicate wells were made for Min and Max respectively.
The fluorescence intensity ratio FI665/615 at the wavelengths of 665 nm and 615 nm was calculated for each well sample. The standard curve was obtained by fitting the “log(inhibitor) vs response−variable slope (four parameters)” model in Prism 8.0 software with the logarithm of standard concentration as X and FI665/615X1000 as Y value. With the test well F1665/615X1000 as a Y value, the cAMP concentration corresponding to each sample was calculated according to the above standard curve in Prism 8.0 software.
The % Inhibition (inhibition percentage) was calculated as follows:
% inhibition=(Cmax−Ccmpd)/(Cmax−Cmm)×100
Where Cmax is the average calculated cAMP concentration in all maximum wells; Cmm is the average calculated cAMP concentration in all […]; Ccmpd is the calculated cAMP concentration of the test compound.
IC50s were calculated by non-linear regression using the “log(inhibitor) vs response−variable slope (four parameters)” model in Prism 8.0 software with % Inhibition (inhibition percentage) as Y value and log value of compound concentration as X, where Y=Bottom+(Top−Bottom)/(1+10^((Log IC50−X)*Hill Slope)).

in vivo = assay: in vivo; design: species or system mice
Description: Experimental Example 2: In Vivo Pharmacokinetic Experiments with Compounds of the Disclosure
This study evaluated in vivo pharmacokinetics in mice by intravenous and oral administration.
Experimental methods and conditions: male CD1 mice, aged 6-8 weeks, had free access to drinking water and were given a single intravenous injection of test compound 1 mg/Kg (vehicle 5% DMSO/10% Solutol/85% Saline), 5 min, 15 min, 30 min, 1 hr, 2 hr, 4 hr, 8 hr, 24 hr or oral gavage administration of 10 mg/kg (vehicle 5% DMSO/10% Solutol/85% Saline) after administration. Orbital blood was collected at 15 min, 30 min, 1 hr, 2 hr, 4 hr, 6 hr, 8 hr, and 24 hr after administration. No less than 50 μL of each sample was collected. Heparin sodium was used for anticoagulation. After collection, the sample was placed on ice, and the plasma was separated and tested within 1 hour. Plasma concentrations were determined by liquid-phase tandem mass spectrometry (LC/MS/MS). Pharmacokinetic parameters were calculated using Phoenix WinNonlin software. The results are shown in Tables 2 and 3 with Tofapriptan as control 1.

LLC-PK1 cells = assay: Compound proliferation inhibition assay on LLC-PK1 cells (vasopressin-induced proliferation); assay type: cell-based, Porcine; conditions: AVP 10 nM, verapamil 5 μM, 48 hr, FIG. 1
Excerpt: Experimental Example 3: Compound Proliferation Inhibition Assay on LLC-PK1 Cells
(1) Cell • Porcine kidney epithelial cells LLC-PK1: purchased from ATCC, Cat #CL-101
(2) Reagents: • Medium 199, Gibco (Cat #11150059) • Fetal Bovine Serum (FBS), Australia, Jitai (Cat #FND500) • Trypsin-EDTA (0.25%), phenol red, Gibco (Cat #25200072) • PBS, pH 7.4, Gibco (Cat #10010031) • DMSO (Dimethyl Sulfoxide), Sigma (Cat #D8418) • Poly-D-lysine, Gibco (Cat #A3890401) • Vasopressin AVP: Ji'er Biochemical Co. Ltd. Customization • Verapamil hydrochloride, MCE (Cat #HY-A0064) • AlamarBlue™ HS Cell Viability Reagent, Invitrogen (Cat #A50100) […]
LLC-PK1 cells were cultured in M199 medium supplemented with 10% fetal bovine serum at 37° C. with 5% CO2. […] LLC-PK1 cells were trypsinized, resuspended in serum-free M199 after centrifugation, counted, diluted to a cell suspension of 1×10^5/mL in serum-free M199 culture medium, and FBS was added to a final concentration of 1%. […] On the fifth day, the culture solution was carefully suctioned away, the cells were washed once with 200 μL PBS, 90 μL of M199 serum-free culture solution was carefully added, then 10 μL Alamarblue reagent was added, and the mixture was centrifuged at 300 rpm for 1 min, incubated at 37° C. for 2 h, and then detected. […]
Data quality control: S/B, i.e., Max well average/Min well average, is calculated and […] is considered QC pass.

[2] = Human V2R Hela-Stable cell line OE2, AVP 2.25 nM, read-out: IC50 (nM), inhibition of the cAMP increase

T1 sequence (P30518 whole entry): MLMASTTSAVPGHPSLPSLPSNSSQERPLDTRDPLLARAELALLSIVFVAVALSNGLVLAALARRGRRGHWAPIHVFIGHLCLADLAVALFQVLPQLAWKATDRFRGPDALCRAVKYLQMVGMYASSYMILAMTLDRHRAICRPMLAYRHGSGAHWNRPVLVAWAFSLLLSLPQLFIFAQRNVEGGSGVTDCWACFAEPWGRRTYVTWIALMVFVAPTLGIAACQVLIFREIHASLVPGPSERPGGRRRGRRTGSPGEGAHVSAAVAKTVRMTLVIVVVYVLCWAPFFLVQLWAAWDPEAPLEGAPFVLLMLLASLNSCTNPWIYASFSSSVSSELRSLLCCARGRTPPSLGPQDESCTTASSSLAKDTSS

IC50 [1, 2]: 10.4 nM
Structure (SMILES): Cc1ccccc1C(=O)Nc1ccc(C(=O)N2CCCC3(CCC3)c3cc(Cl)ccc32)c(C)c1 [Compound 17]

AUC0-inf (in vivo; mouse, iv, 1 mg/kg): 367 ng·h/mL
Cl (in vivo; mouse, iv, 1 mg/kg): 45.5 mL/min/kg
T1/2 (in vivo; mouse, iv, 1 mg/kg): 31.8 min
AUC0-inf (in vivo; mouse, po, 10 mg/kg): 1613 ng·h/mL
Cmax (in vivo; mouse, po, 10 mg/kg): 1307 ng/mL
F (%) (in vivo; mouse, po, 10 mg/kg): 44%
T1/2 (in vivo; mouse, po, 10 mg/kg): 94.8 min
Structure (SMILES): Cc1ccccc1C(=O)Nc1ccc(C(=O)N2CCCC(O)c3cc(Cl)ccc32)c(C)c1 (centres unmarked) [Control 1, Tofapriptan, reference compound]

Structure (SMILES): Cc1cc(NC(=O)c2ccccc2Cl)ccc1C(=O)N1CCCC2(CN2)c2cc(Cl)ccc21 (centres unmarked) [Compound 8]
IC50 [1, 2]: 5.01 nM

Structure (SMILES): O=C(Nc1ccc(C(=O)N2CCC(F)(F)C3(CN3)c3cc(Cl)ccc32)cn1)c1ccccc1C(F)(F)F (centres unmarked) [Compound 1]
inhibitory effect on the proliferation of LLC-PK1 cells (LLC-PK1 cells; compared with control 1): stronger than that of control 1
pro-proliferation effect on LLC-PK1 cells (LLC-PK1 cells): no pro-proliferation effect
AUC0-inf (in vivo; male, CD1, mouse, iv, 1 mg/kg): 719 ng·h/mL
clearance (in vivo; male, CD1, mouse, iv, 1 mg/kg): 23.2 mL/min/kg
half-life (in vivo; male, CD1, mouse, iv, 1 mg/kg): 55.2 min
AUC0-inf (in vivo; male, CD1, mouse, po, 10 mg/kg): 4060 ng·h/mL
Cmax (in vivo; male, CD1, mouse, po, 10 mg/kg): 1260 ng/mL
bioavailability (in vivo; male, CD1, mouse, po, 10 mg/kg): 56%
half-life (in vivo; male, CD1, mouse, po, 10 mg/kg): 36 min
IC50 [1]: 10.9 nM

Structure (SMILES): O=C(Nc1ccc(C(=O)N2CCC(F)(F)C3(CN3)c3cc(Cl)ccc32)cn1)c1ccccc1Cl (centres unmarked) [Compound 21]
IC50 [1, 2]: 4.51 nM

IC50 [1, 2]: 11.2 nM
Structure (SMILES): Cc1ccccc1C(=O)Nc1ccc(C(=O)N2CCCC3(CC3)c3cc(Cl)ccc32)c(C)c1 [Compound 16]

Structure (SMILES): Cc1ccccc1C(=O)Nc1ccc(C(=O)N2CCCC3(CN3)c3cc(Cl)ccc32)cn1 (centres unmarked) [Compound 4]
IC50 [1, 2]: 3.14 nM

Structure (SMILES): Cc1ccccc1C(=O)Nc1ccc(C(=O)N2CCCC3(CN3)c3cc(Cl)ccc32)c(C)c1 (centres unmarked) [Compound 9]
IC50 [1, 2]: 4.88 nM

Structure (SMILES): Cc1ccccc1C(=O)Nc1ccc(C(=O)N2CCC(F)(F)C3(CN3)c3cc(Cl)ccc32)cn1 (centres unmarked) [Compound 20]
IC50 [1, 2]: 5.54 nM

Structure (SMILES): O=C(Nc1ccc(C(=O)N2CCCC3(CN3)c3cc(Cl)ccc32)cn1)c1ccccc1C(F)(F)F (centres unmarked) [Compound 5]
IC50 [1, 2]: 4.67 nM

Structure (SMILES): Cc1ccccc1C(=O)Nc1ccc(C(=O)N2CCC(F)(F)C3(CN3)c3cc(Cl)ccc32)c(C)c1 (centres unmarked) [Compound 2]
IC50 [1, 2]: 9.35 nM
